Molecular target: T1, human 5-HT7 receptor (Homo sapiens, UniProt P34969)
T1 construct: expressed in transfected cells; host or cells: CHO cells
Experiment: 5-HT7 Receptor Binding Assay
Details: membranes of CHO cells expressing human 5-HT7 receptor; 1 nM 3H-5-carboxamidotryptamine; 25° C., 60 minutes
Outline: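 Membranes from CHO cells expressing human 5-HT7, 30 ug protein per well, incubated 60 min at 25° C in 50 mM HEPES with 0.1–1000 nM test compound and 1 nM ^3H-5-carboxamidotryptamine. Non-specific binding with 10 uM serotonin. Filtration and scintillation counting; IC50 by non-linear regression.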

T1 sequence (P34969 whole entry): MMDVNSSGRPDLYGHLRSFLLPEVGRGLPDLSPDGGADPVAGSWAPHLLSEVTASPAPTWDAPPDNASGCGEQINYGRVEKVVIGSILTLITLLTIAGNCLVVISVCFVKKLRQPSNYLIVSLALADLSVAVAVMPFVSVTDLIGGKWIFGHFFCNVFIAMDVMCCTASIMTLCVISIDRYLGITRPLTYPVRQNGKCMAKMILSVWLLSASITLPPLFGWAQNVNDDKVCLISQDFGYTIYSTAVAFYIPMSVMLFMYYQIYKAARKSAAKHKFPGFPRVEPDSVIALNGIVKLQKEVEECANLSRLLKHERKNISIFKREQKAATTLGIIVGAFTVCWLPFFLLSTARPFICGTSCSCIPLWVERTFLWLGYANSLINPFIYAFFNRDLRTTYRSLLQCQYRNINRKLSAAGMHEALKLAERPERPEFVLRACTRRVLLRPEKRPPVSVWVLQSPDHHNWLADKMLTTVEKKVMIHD

Row | Compound | IC50
1 | COc1cc(CCNc2nc(C)cc(N[C@@H](C)c3ccccc3)n2)cc(OC)c1 [N^2-[2-(3,5-Dimethoxyphenyl)ethyl]-6-methyl-N^4-[(1S)-1-phenylethyl]pyrimidine-2,4-diamine] | 51 to 100 nM
2 | CC(=O)Nc1cccc(CCNc2nc(C)cc(N[C@@H](C)c3ccccc3)n2)c1 [N^2-[2-(3-Acetamidophenyl)ethyl]-6-methyl-N^4-[(1S)-1-phenylethyl]pyrimidine-2,4-diamine] | 101 to 200 nM
3 | COc1ccc(CCNc2nc(C)cc(N[C@@H](C)c3ccccc3)n2)cc1Br [N^2-[2-(3-Bromo-4-methoxyphenyl)ethyl]-6-methyl-N^4-[(1S)-1-phenylethyl]pyrimidine-2,4-diamine] | 51 to 100 nM
4 | CC(Nc1ccnc(NCCc2cccc3c2OCO3)n1)c1ccccc1 (centres unmarked) [N^2-[2-(4-Benzodioxolyl)ethyl]-N^4-(1-phenylethyl)pyrimidine-2,4-diamine] | 101 to 200 nM
5 | CC(Nc1ccnc(NCCc2ccc(Cl)cc2)n1)c1ccccc1 (centres unmarked) [N^2-[2-(4-Chlorophenyl)ethyl]-N^4-(1-phenylethyl)pyrimidine-2,4-diamine] | 51 to 100 nM
6 | COc1ccc(CCNc2nc(C)cc(N[C@@H](C)c3ccccc3)n2)cc1 [N^2-[2-(4-Methoxyphenyl)ethyl]-6-methyl-N^4-[(1S)-1-phenylethyl]pyrimidine-2,4-diamine] | 101 to 200 nM
7 | COc1ccc(CCNc2nccc(NC(C)c3ccccc3)n2)cc1 (centres unmarked) [N^2-[2-(4-Methoxyphenyl)ethyl]-N^4-(1-phenylethyl)pyrimidine-2,4-diamine] | 101 to 200 nM
8 | CC(CNc1nccc(NC(C)c2ccccc2)n1)c1ccccc1 (centres unmarked) [N^4-(1-Phenylethyl)-N^2-(2-phenylpropyl)pyrimidine-2,4-diamine] | 51 to 100 nM
9 | CC(Nc1ccnc(NCCCc2ccccc2)n1)c1ccccc1 (centres unmarked) [N^4-(1-Phenylethyl)-N^2-(3-phenylpropyl)pyrimidine-2,4-diamine] | 51 to 100 nM
10 | CC(Nc1ccnc(NCCc2cccc(C(F)(F)F)c2)n1)c1ccccc1 (centres unmarked) [N^4-(1-Phenylethyl)-N^2-{2-[3-(trifluoromethyl)phenyl]ethyl}pyrimidine-2,4-diamine] | 51 to 100 nM
11 | Clc1ccc(CNc2ccnc(NCCc3ccccc3)n2)c(Cl)c1 [N^4-(2,4-Dichlorophenylmethyl)-N^2-(2-phenylethyl)pyrimidine-2,4-diamine] | 51 to 100 nM
12 | Clc1ccc(CNc2ccnc(NCCOc3ccccc3)n2)cc1Cl [N^4-(3,4-Dichlorophenylmethyl)-N^2-(2-phenoxyethyl)pyrimidine-2,4-diamine] | 101 to 200 nM
13 | Clc1ccc(CNc2ccnc(NCCc3ccccc3)n2)cc1Cl [N^4-(3,4-Dichlorophenylmethyl)-N^2-(2-phenylethyl)pyrimidine-2,4-diamine] | 101 to 200 nM
14 | Fc1cc(F)cc(CNc2ccnc(NCCOc3ccccc3)n2)c1 [N^4-(3,5-Difluorophenylmethyl)-N^2-(2-phenoxyethyl)pyrimidine-2,4-diamine] | 101 to 200 nM
15 | COc1cc(CNc2ccnc(NCCOc3ccccc3)n2)cc(OC)c1 [N^4-(3,5-Dimethoxyphenylmethyl)-N^2-(2-phenoxyethyl)pyrimidine-2,4-diamine] | 101 to 200 nM
16 | Cc1ccc(CNc2ccnc(NCCc3ccccc3)n2)cc1Cl [N^4-(3-Chloro-4-methylphenylmethyl)-N^2-(2-phenylethyl)pyrimidine-2,4-diamine] | 101 to 200 nM
17 | Clc1cccc(CNc2ccnc(NCCc3ccccc3)n2)c1 [N^4-(3-Chlorophenylmethyl)-N^2-(2-phenylethyl)pyrimidine-2,4-diamine] | 101 to 200 nM
18 | Fc1cccc(CNc2ccnc(NCCOc3ccccc3)n2)c1 [N^4-(3-Fluorophenylmethyl)-N^2-(2-phenoxyethyl)pyrimidine-2,4-diamine] | 51 to 100 nM
19 | COc1cccc(CNc2ccnc(NCCc3ccccc3)n2)c1 [N^4-(3-Methoxyphenylmethyl)-N^2-(2-phenylethyl)pyrimidine-2,4-diamine] | ≤ 50 nM
20 | Cc1cccc(CNc2ccnc(NCCOc3ccccc3)n2)c1 [N^4-(3-Methylphenylmethyl)-N^2-(2-phenoxyethyl)pyrimidine-2,4-diamine] | ≤ 50 nM
21 | Cc1cccc(CNc2ccnc(NCCc3ccccc3)n2)c1 [N^4-(3-Methylphenylmethyl)-N^2-(2-phenylethyl)pyrimidine-2,4-diamine] | ≤ 50 nM
22 | c1ccc(OCCNc2nccc(NCc3cccc4c3OCO4)n2)cc1 [N^4-(4-Benzodioxolylmethyl)-N^2-(2-phenoxyethyl)pyrimidine-2,4-diamine] | ≤ 50 nM
23 | c1ccc(CCNc2nccc(NCc3cccc4c3OCO4)n2)cc1 [N^4-(4-Benzodioxolylmethyl)-N^2-(2-phenylethyl)pyrimidine-2,4-diamine] | ≤ 50 nM
24 | Clc1ccc(CNc2ccnc(NCCOc3ccccc3)n2)cc1 [N^4-(4-Chlorophenylmethyl)-N^2-(2-phenoxyethyl)pyrimidine-2,4-diamine] | ≤ 50 nM
25 | Clc1ccc(CNc2ccnc(NCCc3ccccc3)n2)cc1 [N^4-(4-Chlorophenylmethyl)-N^2-(2-phenylethyl)pyrimidine-2,4-diamine] | ≤ 50 nM
26 | COc1ccc(CNc2ccnc(NCCc3ccccc3)n2)cc1 [N^4-(4-Methoxyphenylmethyl)-N^2-(2-phenylethyl)pyrimidine-2,4-diamine] | ≤ 50 nM
27 | CC(Nc1ccnc(NCCOc2ccccc2)n1)c1ccc(Cl)cc1 (centres unmarked) [N^4-[1-(4-Chlorophenyl)ethyl]-N^2-(2-phenoxyethyl)pyrimidine-2,4-diamine] | ≤ 50 nM
28 | CC(Nc1ccnc(NCCc2ccccc2)n1)c1ccc(Cl)cc1 (centres unmarked) [N^4-[1-(4-Chlorophenyl)ethyl]-N^2-(2-phenylethyl)pyrimidine-2,4-diamine] | ≤ 50 nM

Other lines, results leading:

Row | IC50 | Compound
29 | ≤ 50 nM | Cc1cc(N[C@@H](C)c2ccccc2)nc(NCCc2cccc(Br)c2)n1 [N^2-[2-(3-Bromophenyl)ethyl]-6-methyl-N^4-[(1S)-1-phenylethyl]pyrimidine-2,4-diamine]
30 | ≤ 50 nM | CC(Nc1ccnc(NCCc2cccc(Cl)c2)n1)c1ccccc1 (centres unmarked) [N^2-[2-(3-Chlorophenyl)ethyl]-N^4-(1-phenylethyl)pyrimidine-2,4-diamine]
31 | ≤ 50 nM | Cc1cc(N[C@@H](C)c2ccccc2)nc(NCCc2cccc(C#N)c2)n1 [N^2-[2-(3-Cyanophenyl)ethyl]-6-methyl-N^4-[(1S)-1-phenylethyl]pyrimidine-2,4-diamine]
32 | ≤ 50 nM | Cc1cc(N[C@@H](C)c2ccccc2)nc(NCCc2cccc(F)c2)n1 [N^2-[2-(3-Fluorophenyl)ethyl]-6-methyl-N^4-[(1S)-1-phenylethyl]pyrimidine-2,4-diamine]
33 | ≤ 50 nM | CC(Nc1ccnc(NCCc2cccc(F)c2)n1)c1ccccc1 (centres unmarked) [N^2-[2-(3-Fluorophenyl)ethyl]-N^4-(1-phenylethyl)pyrimidine-2,4-diamine]
34 | ≤ 50 nM | COc1cccc(CCNc2nc(C)cc(N[C@@H](C)c3ccccc3)n2)c1 [N^2-[2-(3-Methoxyphenyl)ethyl]-6-methyl-N^4-[(1S)-1-phenylethyl]pyrimidine-2,4-diamine]
35 | ≤ 50 nM | COc1cccc(CCNc2nccc(NC(C)c3ccccc3)n2)c1 (centres unmarked) [N^2-[2-(3-Methoxyphenyl)ethyl]-N^4-(1-phenylethyl)pyrimidine-2,4-diamine]
36 | ≤ 50 nM | Cc1cc(N[C@@H](C)c2ccccc2)nc(NCCc2ccc(Cl)cc2)n1 [N^2-[2-(4-Chlorophenyl)ethyl]-6-methyl-N^4-[(1S)-1-phenylethyl]pyrimidine-2,4-diamine]
37 | ≤ 50 nM | CC(Nc1ccnc(NCCc2ccc(F)cc2)n1)c1ccccc1 (centres unmarked) [N^2-[2-(4-Fluorophenyl)ethyl]-N^4-(1-phenylethyl)pyrimidine-2,4-diamine]
38 | ≤ 50 nM | CC(Nc1ccnc(NCCc2ccc(O)cc2)n1)c1ccccc1 (centres unmarked) [N^2-[2-(4-Hydroxyphenyl)ethyl]-N^4-(1-phenylethyl)pyrimidine-2,4-diamine]
39 | ≤ 50 nM | Cc1ccc(CCNc2nc(C)cc(N[C@@H](C)c3ccccc3)n2)cc1 [N^2-[2-(4-Methylphenyl)ethyl]-6-methyl-N^4-[(1S)-1-phenylethyl]pyrimidine-2,4-diamine]
40 | ≤ 50 nM | Cc1ccc(CCNc2nccc(NC(C)c3ccccc3)n2)cc1 (centres unmarked) [N^2-[2-(4-Methylphenyl)ethyl]-N^4-(1-phenylethyl)pyrimidine-2,4-diamine]
41 | ≤ 50 nM | CC(C)(Nc1ccnc(NCCc2ccccc2)n1)c1ccccc1 [N^4-(1-Methyl-1-phenyl)ethyl)-N^2-(2-phenylethyl)pyrimidine-2,4-diamine]
42 | ≤ 50 nM | Clc1ccccc1CNc1ccnc(NCCc2ccccc2)n1 [N^4-(2-Chlorophenylmethyl)-N^2-(2-phenylethyl)pyrimidine-2,4-diamine]
43 | ≤ 50 nM | COc1ccccc1CNc1ccnc(NCCc2ccccc2)n1 [N^4-(2-Methoxyphenylmethyl)-N^2-(2-phenylethyl)pyrimidine-2,4-diamine]
44 | ≤ 50 nM | Fc1ccc(CNc2ccnc(NCCOc3ccccc3)n2)cc1F [N^4-(3,4-Difluorophenylmethyl)-N^2-(2-phenoxyethyl)pyrimidine-2,4-diamine]
45 | ≤ 50 nM | Fc1ccc(CNc2ccnc(NCCc3ccccc3)n2)cc1F [N^4-(3,4-Difluorophenylmethyl)-N^2-(2-phenylethyl)pyrimidine-2,4-diamine]
46 | ≤ 50 nM | Fc1ccc(CNc2ccnc(NCCOc3ccccc3)n2)cc1Cl [N^4-(3-Chloro-4-fluorophenylmethyl)-N^2-(2-phenoxyethyl)pyrimidine-2,4-diamine]
47 | ≤ 50 nM | Fc1ccc(CNc2ccnc(NCCc3ccccc3)n2)cc1Cl [N^4-(3-Chloro-4-fluorophenylmethyl)-N^2-(2-phenylethyl)pyrimidine-2,4-diamine]
48 | ≤ 50 nM | Cc1ccc(CNc2ccnc(NCCOc3ccccc3)n2)cc1Cl [N^4-(3-Chloro-4-methylphenylmethyl)-N^2-(2-phenoxyethyl)pyrimidine-2,4-diamine]
49 | ≤ 50 nM | Clc1cccc(CNc2ccnc(NCCOc3ccccc3)n2)c1 [N^4-(3-Chlorophenylmethyl)-N^2-(2-phenoxyethyl)pyrimidine-2,4-diamine]
50 | ≤ 50 nM | Fc1cccc(CNc2ccnc(NCCc3ccccc3)n2)c1 [N^4-(3-Fluorophenylmethyl)-N^2-(2-phenylethyl)pyrimidine-2,4-diamine]

From patent publication US6630469B2, “5-HT7 receptor antagonists” (Bristol-Myers Squibb Company, priority 2000, dated 2003)
